For the test, the target named is human PCSK9 (Homo sapiens, UniProt Q8NBP7). As to the kind of experiment: PCSK9 ligand binding TR-FRET assay (interference with binding of human PCSK9 to human LDLR). As to conditions: for Max % inhibition: PCSK9 FRET assay, efficacy (Amax), 100% = 1 uM unlabeled human PCSK9, 0% = DMSO; for pIC50: TR-FRET, human PCSK9 Alexa Fluor 647 / human LDLR extracellular domain-Europium Kryptate, read-out: PCSK9 FRET Assay IC50. The procedure, abridged:
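Threefold compound dilutions were pre-incubated 30 min with PCSK9, after which 4 nM Europium Kryptate-tagged human LDLR ectodomain was added for a further 2 h.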

Molecules are shown by their SMILES. pIC50: −log10 of the molar value.

Sequence of human PCSK9 (Q8NBP7 153-692): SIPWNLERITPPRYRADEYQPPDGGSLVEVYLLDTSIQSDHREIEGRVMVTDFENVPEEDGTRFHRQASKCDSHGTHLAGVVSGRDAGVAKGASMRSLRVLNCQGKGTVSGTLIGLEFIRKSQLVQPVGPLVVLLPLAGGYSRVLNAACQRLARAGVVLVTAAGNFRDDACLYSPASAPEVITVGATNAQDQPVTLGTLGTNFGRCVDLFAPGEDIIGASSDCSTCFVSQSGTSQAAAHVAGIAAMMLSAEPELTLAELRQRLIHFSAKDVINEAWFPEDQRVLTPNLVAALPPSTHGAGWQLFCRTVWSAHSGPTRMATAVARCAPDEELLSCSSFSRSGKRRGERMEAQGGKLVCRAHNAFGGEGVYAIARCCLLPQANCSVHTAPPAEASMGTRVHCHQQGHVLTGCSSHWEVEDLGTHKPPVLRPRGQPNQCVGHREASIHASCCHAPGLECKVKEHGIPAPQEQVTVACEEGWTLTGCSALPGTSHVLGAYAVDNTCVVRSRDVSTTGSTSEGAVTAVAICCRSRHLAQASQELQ
Sequence of human PCSK9 (Q8NBP7 31-152 partner limits assumed): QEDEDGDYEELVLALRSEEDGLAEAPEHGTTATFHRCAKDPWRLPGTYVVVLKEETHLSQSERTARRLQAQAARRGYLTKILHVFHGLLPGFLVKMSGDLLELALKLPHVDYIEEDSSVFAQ

Regarding `COC[C@@H]1NC(=O)[C@H](C)N(Cc2ccc(Cl)cc2Oc2ccc(-n3cnc(CN4CCCC4)c3C)cc2)C(=O)C[C@@H](Cc2ccccc2)C(=O)N(C)[C@@H](C)CNC(=O)C[C@H](Cc2ccc(Cl)cc2)N(C)C1=O` [Compound 259, (2S,5S,8S,13S,16R)-16-benzyl-1-(4-chloro-2-(4-(5-methyl-4-(pyrrolidin-1-ylmethyl)-1H-imidazol-1-yl)phenoxy)benzyl)-8-(4-chlorobenzyl)-5-(methoxymethyl)-2,7,13,14-tetramethyl-1,4,7,11,14-pentaazacyclooctadecane-3,6,10,15,18-pentaone], the Max % inhibition was 108.15% and the pIC50 is 8.49.
Take `Cc1c(CN2CCCC2)ncn1-c1ccc(Oc2cc(Cl)ccc2CN2C(=O)C[C@@H](Cc3ccccc3)C(=O)N(C)[C@H]3CCCC[C@@H]3NC(=O)C[C@H](Cc3ccc(Cl)cc3)N(C)C(=O)[C@H](CO)NC(=O)[C@@H]2C)cc1` [Compound 260, (4S,7S,10S,14R,16aS,20aS)-14-benzyl-11-(4-chloro-2-(4-(5-methyl-4-(pyrrolidin-1-ylmethyl)-1H-imidazol-1-yl)phenoxy)benzyl)-4-(4-chlorobenzyl)-7-(hydroxymethyl)-5,10,16-trimethylhexadecahydrobenzo[l][1,4,7,11,14]pentaazacyclooctadecine-2,6,9,12,15(3H)-pentaone]: the Max % inhibition is given as 109.05% and the pIC50 is 8.68.
For `COC[C@@H]1NC(=O)[C@H](C)N(Cc2ccc(Cl)cc2Oc2ccc(-c3cnc([C@@H](C)N(C)C)n3C)cc2)C(=O)C[C@@H](Cc2ccccc2)C(=O)N(C)[C@@H](C)[C@H](C)NC(=O)C[C@H](Cc2ccc(Cl)cc2)N(C)C1=O` [Compound 261, (2S,5S,8S,12S,13S,16R)-16-benzyl-1-(4-chloro-2-(4-(2-((R)-1-(dimethylamino)ethyl)-1-methyl-1H-imidazol-5-yl)phenoxy)benzyl)-8-(4-chlorobenzyl)-5-(methoxymethyl)-2,7,12,13,14-pentamethyl-1,4,7,11,14-pentaazacyclooctadecane-3,6,10,15,18-pentaone], the Max % inhibition is recorded as 111.41% and the pIC50 is 8.70.
The matching figures for `COC[C@@H]1NC(=O)[C@H](C)N(Cc2ccc(Cl)cc2Oc2ccc(-c3cnc(CN(C)C)n3C)cc2)C(=O)C[C@H]2C(=O)N(C)[C@@H](CNC(=O)C[C@H](Cc3ccc(Cl)cc3)N(C)C1=O)C(=O)N2C` [Compound 262, (1S,6S,9S,12S,16S)-13-(4-chloro-2-(4-(2-((dimethylamino)methyl)-1-methyl-1H-imidazol-5-yl)phenoxy)benzyl)-6-(4-chlorobenzyl)-9-(methoxymethyl)-7,12,17,19-tetramethyl-3,7,10,13,17,19-hexaazabicyclo[14.2.2]icosane-4,8,11,14,18,20-hexaone]: 97.63% and 6.69.
The matching figures for `CCC[C@@H]1CC(=O)N(Cc2ccc(Cl)cc2Oc2ccc(-c3cnc(CN(C)C)n3C)cc2)[C@@H](C)C(=O)N[C@@H](COC)C(=O)N(C)[C@@H](Cc2ccc(Cl)cc2)CC(=O)N[C@H]2CCCC[C@@H]2N(C)C1=O` [Compound 263, (4S,7S,10S,14R,16aS,20aS)-11-(4-chloro-2-(4-(2-((dimethylamino)methyl)-1-methyl-1H-imidazol-5-yl)phenoxy)benzyl)-4-(4-chlorobenzyl)-7-(methoxymethyl)-5,10,16-trimethyl-14-propylhexadecahydrobenzo[l][1,4,7,11,14]pentaazacyclooctadecine-2,6,9,12,15(3H)-pentaone]: 76.79% and 8.28.

Values taken from patent US20230089867A1, “CYCLIC PENTAMER COMPOUNDS AS PROPROTEIN CONVERTASE SUBTILISIN/KEXIN TYPE 9 (PCSK9) INHIBITORS FOR THE TREATMENT OF METABOLIC DISORDER” (Novartis AG, priority 2018, published 2023).
